B1: pure β-chain: pure β-chain of hCG (protein, UniProt P0DN86 21-165, looked up)
Choriogonadotropin subunit …: SKEPLRPRCRPINATLAVEKEGCPVCITVNTTICAGYCPTMTRVLQGVLPALPQVVCNYRDVRFESIRLPGCPRGVNPVVSYAVALSCQCALCRRSTTDCGGPKDHPLTCDDPRFQDSSSSKAPPPSLPSPSRLPGPSDTPILPQ
B2: partially purified β-hCG: native partially purified whole β-chain of hCG (protein, UniProt P0DN86 21-165, looked up)
Choriogonadotropin subunit …: B1 Choriogonadotropin subunit …
B3: recombinant β-hCG (purified): purified recombinant β-hCG (protein, UniProt P0DN86 21-165, looked up)
Choriogonadotropin subunit …: B1 Choriogonadotropin subunit …

Experiments:
KS Y-1 or KS-SLK cells = assay: KS clonogenic assay in methylcellulose; format: cell-based, human
Method: Briefly, the KS Y-1 cells were obtained from mononuclear cells isolated from pleural effusion of an AIDS patient with KS involving the lungs. After the depletion of T lymphocytes, monocytes/macrophages and fibroblasts by the cytotoxicity method, using monoclonal antibodies against CD2, CD3, CD4, CD8, CD10 and CD14 membrane antigens and baby rabbit complement, the cells were cultured in the absence of exogenous growth factors to select for transformed cells.

KS Y-1 induced tumors = assay: KS Y-1 tumors induced in immunodeficient mice; settings: compared to β-hCG peptides 45-57 and 109-119
KS tumors and cells = assay: Overall anti-KS activity of hCG preparations and peptides in vitro and in vivo; settings: for anti-KS effects: in vitro and in vivo animal model data
HIV = HIV assays (anti-viral effects)

Molecule | inhibition in clonogenic assays (KS Y-1 or KS-SLK cells) | anti-KS activity of other peptides (KS Y-1 induced tumors) | further results
α-hCG peptide 88-92: α-hCG peptide of amino acids 88-92 (YYHKS; UniProt P01215 112-116, looked up, fragment) | little or no inhibition | inactive | –
β-hCG peptide 6-40: β-hCG peptide 6-40, forms part of the β-core (RPRCRPINATLAVEKEGCPVCITVNTTICAGYCPT; UniProt P0DN86 26-60, looked up, fragment) | – | slight activity | –
β-hCG peptide 7-40: β-hCG peptide of amino acids 7-40 (PRCRPINATLAVEKEGCPVCITVNTTICAGYCPT; UniProt P0DN86 27-60, looked up, fragment) | little or no inhibition | – | –
β-hCG peptide 34-49: β-hCG peptide of amino acids 34-49 (CAGYCPTMTRVLQGVL; UniProt P0DN86 54-69, looked up, fragment) | little or no inhibition | inactive | –
β-hCG peptide 38-57: β-hCG peptide of amino acids 38-57, overlaps satellin A1 (CPTMTRVLQGVLPALPQVVC; UniProt P0DN86 58-77, looked up, fragment) | little or no inhibition | slight activity | –
β-hCG peptide 55-90: β-hCG peptide 55-90, forms part of the β-core (VVCNYRDVRFESIRLPGCPRGVNPVVSYAVALSCQC; UniProt P0DN86 75-110, looked up, fragment) | – | slight activity | –
β-hCG peptide 57-93: β-hCG peptide of amino acids 57-93 (CNYRDVRFESIRLPGCPRGVNPVVSYAVALSCQCALC; UniProt P0DN86 77-113, looked up, fragment) | little or no inhibition | inactive | –
β-hCG peptide 74-95: β-hCG peptide of amino acids 74-95 (RGVNPVVSYAVALSCQCALCRR; UniProt P0DN86 94-115, looked up, fragment) | little or no inhibition | inactive | –
β-hCG peptide 93-100: β-hCG peptide of amino acids 93-100 (CRRSTTDC; UniProt P0DN86 113-120, looked up, fragment) | – | inactive | –
β-hCG peptide 100-110: β-hCG peptide of amino acids 100-110 (CGGPKDHPLTC; UniProt P0DN86 120-130, looked up, fragment) | little or no inhibition | inactive | –
β-hCG peptide 109-119: synthetic peptide of amino acid numbers 109-119 of the beta subunit of hCG (TCDDPRFQDSS) | – | – | anti-tumor (anti-KS) effects in clonogenic assays (KS Y-1 or KS-SLK cells; 50 nmoles/ml, 2 KS neoplastic cell lines, 10 days): strongest anti-tumor effects; activities of native hCG preparations (anti-KS, anti-viral, pro-hematopoietic) mimicked or retained (KS tumors and cells): mimicked; anti-KS effects (KS tumors and cells): have anti-KS effects; anti-viral effects (HIV): strongest anti-viral effects
B1 | – | – | anti-KS effect in clonogenic assays (KS Y-1 or KS-SLK cells; pure subunit chains): no anti-KS effect
B2 | – | – | anti-KS effects (KS tumors and cells): have anti-KS effects; anti-KS effects (KS tumors and cells; listed as native partially purified whole β-chain): considerable anti-KS activity
B3 | – | – | anti-KS effects (KS tumors and cells): little or no effect
